The nature of this series: solubility of ivermectin in various solvents. The series is classed as physicochemical. From the text: The table below illustrates the solubility of ivermectin in various solvents: […]

This note sets out measurements from patent US8598129B2, “Topical application of ivermectin for the treatment of dermatological conditions/afflictions” (Galderma S.A., priority 2003, dated 2013).

As to Ivermectin, the “Maximum % solubility of ivermectin in the solvent concerned (weight/weight)” value (“Maximum % solubility … (weight/weight)” below) (solvent: N-methyl-2-pyrrolidone) is 58.13 % (weight/weight), the “Maximum % solubility … (weight/weight)” value (solvent: Propylene glycol) is reported as 21.83 % (weight/weight), the “Maximum % solubility … (weight/weight)” value (solvent: Propylene glycol/oleyl alcohol (4 parts/2 parts)) is given as 27.31 % (weight/weight) and the “Maximum % solubility … (weight/weight)” value (solvent: Triacetin) was 7.22 % (weight/weight).
